Measured values: patent publication US20110152166A1, “METHOD OF MODULATION OF PROTEIN PHOSPHORYLATION-DEPENDENT CONFORMATIONAL TRANSITIONS WITH LOW MOLECULAR WEIGHT COMPOUNDS” (priority 2006, published 2011)
Ends that are not written are not given here.

Tests used:
[1] = target: GST-S6K11-365 (Rattus norvegicus, UniProt P67999); assay: Global amide hydrogen exchange (HXMS); set-up: made in house; settings: early time points; peptide 150 molar excess
Description: (A) Effect of S6K1 tail peptides, described in the legend to FIG. 13, on global deuteron uptake by purified GST-56K11-365. (B) Kinase activity of wt and mutant GST-PKCζ. (C) Global deuteron uptake by wt and mutant GST-PKCζ. (D) Local deuteron uptake by wt and mutant GST-PKCζ. In the PKCζ model, peptides showing strong and no-or-slight protection by the tail phosphate are shown in pink and grey, respectively. The panels show HX curves of the peptides. Experiments were repeated 2 times (A, C, D) or 3 times (B) and data are means±range (A, C) or ±SD (B)
Amide hydrogen (^1H/^2H) exchange monitored by mass spectrometry (HXMS). D2O (99.9 atom % D) was obtained from Cambridge Isotope Laboratories. Isotopic exchange was initiated by diluting 8 μl 20-40 μM protein in 300 μl deuterated buffer (25 mM Tris, 150 mM NaCl, 1 mM dithiothreitol, 10 mM MgCl2, 25 mM glutathione, pD 7.1 uncorrected value). The exchange was carried out at 30° C., and 75 μl aliquots were collected after 1 min, 5 min, 15 min, and 45 min. […]
The LC setup was described previously (Jorgensen et al., 2004), with the modification that proteins were desalted for 5 min and eluted with a 9 min linear gradient (14% to 70% acetonitrile, 0.05% TFA) to separate the free GST from the GST-tagged kinases of interest in the global hydrogen exchange analysis. […] The HXMS data on peptide level were analyzed by HX-Express (Weis et al., 2006). […]

[2] = target: T1, PDK1 [Phe224Trp] (Homo sapiens, UniProt O15530, F224W); assay: PDK1 activity assay with T308tide; type: biochemical; settings: catalytic domain 50-360
T1 construct: the catalytic domain of PDK1 (50-359) produced in SF9 insect cells; His-tag (N, cleaved yes); made in house; host or cells: insect cells (baculovirus)
Procedure: (§1) FIG. 6—A mutation at Thr226 in PDK1 uncouples the ligand binding to the HM/PIF-pocket from activation of the kinase. The catalytic domain (CD) of PDK1 50-360 and its mutants Phe224Trp and Thr226Trp were expressed in insect cells and purified. (A) PDK1 activity was measured in the presence or absence of the HM-polypeptide PIFtide or compound 1 using T308tide as a substrate. PDK1 CD wt and PDK1 [Phe224Trp] were activated by PIFtide and compound 1 whereas PDK1 CD [Thr226Trp] mutant was not activated. (B,C,D,E) PDK1 [Phe224Trp] and PDK1 [Thr226Trp] retain significant binding to P-HM polypeptides and PIFtide. Surface plasmon resonance measurements were carried out on a BiaCore system to evaluate the binding affinities of PDK1 CD wt, PDK1 [Phe224Trp] and PDK1 [Thr226Trp] to HM-polypeptides. Biotin-P-HM-polypeptide derived from S6K1 was immobilized on a streptavidin-coated sensor chip and the specific interaction with PDK1 was recorded. (B) The direct binding of PDK1 CD wt to biotin-P-HM-S6K was recorded at the indicated concentrations of PDK1 CD. The Kd (0.05 μM) was estimated based on the response units obtained at each concentration at equilibrium (insert).
(§2) Protein kinase activity tests were performed essentially as previously described (Balendran et al., 2000; Biondi et al., 2000; Biondi et al., 2001). Substrates used were either MBP (for PKCζ or polypeptides (Crosstide for PKB, S6K, SGK and PRK2; T308tide for PDK1, and Kemptide for PKA). PKA (Sigma) was measured in the presence of 100 μM cAMP. Alternatively, assays were performed in a 96 well format, aliquots spotted on p81 phosphocellulose papers (Whatmann), washed in 0.01% phosphoric acid, dried, and then exposed and analysed using Phospholmager technology (Storm, Molecular Dynamics). Activity measurements were performed in duplicates with less than 10% difference between duplicate pairs. Experiments were repeated at least twice, although most of the experiments were repeated multiple times, with similar results.
(§3) PDK1 activity assay was performed in a 20 μl mix containing 50 mM Tris-HCl pH 7.5, 0.05 mg/ml BSA, 0.1% β-mercaptoethanol, 10 mM MgCl2, 100 μM [γ^32P]ATP (5-50 cpm/pmol), 0.003% Brij, 150 ng PDK1, and T308tide (from 0.05 to 1 mM). PDK1 specific activity was approximately 5 U/mg (when measured at 1 mM T308tide). The effect of small compounds on PDK1 was repeated with proteins from different purification batches and with different protein constructs, comprising the full length protein or the catalytic domain alone, with similar results. […] This variability may be due to the PIFtide/compound-stimulated autophosphorylation of the activation loop in certain preparations having less than a 1:1 molar phosphorylation stoichiometry at this site.

[3] = target: T2, PDK1 [Thr226Trp] (Homo sapiens, UniProt O15530, T226W); assay: PDK1 activity assay with T308tide; type: biochemical; settings: catalytic domain 50-360
T2 construct: the catalytic domain of PDK1 (50-359) produced in SF9 insect cells; His-tag (N, cleaved yes); made in house; host or cells: insect cells (baculovirus)
Procedure: as §1, §2, §3

T2 sequence (O15530 50-359 T226W): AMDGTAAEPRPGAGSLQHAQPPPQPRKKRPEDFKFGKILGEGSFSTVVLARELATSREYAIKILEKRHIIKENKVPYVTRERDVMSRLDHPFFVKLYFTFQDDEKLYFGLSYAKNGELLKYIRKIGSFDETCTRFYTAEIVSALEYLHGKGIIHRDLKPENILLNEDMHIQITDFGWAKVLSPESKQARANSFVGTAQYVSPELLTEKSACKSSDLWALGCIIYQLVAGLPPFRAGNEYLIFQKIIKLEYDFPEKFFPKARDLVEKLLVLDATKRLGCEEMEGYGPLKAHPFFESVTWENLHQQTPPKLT
T1 sequence (O15530 50-359 F224W): as the sequence (O15530 50-359 T226W) above, with F175W, W177T counted along it
Chain of GST-S6K11-365 (P67999 24-388): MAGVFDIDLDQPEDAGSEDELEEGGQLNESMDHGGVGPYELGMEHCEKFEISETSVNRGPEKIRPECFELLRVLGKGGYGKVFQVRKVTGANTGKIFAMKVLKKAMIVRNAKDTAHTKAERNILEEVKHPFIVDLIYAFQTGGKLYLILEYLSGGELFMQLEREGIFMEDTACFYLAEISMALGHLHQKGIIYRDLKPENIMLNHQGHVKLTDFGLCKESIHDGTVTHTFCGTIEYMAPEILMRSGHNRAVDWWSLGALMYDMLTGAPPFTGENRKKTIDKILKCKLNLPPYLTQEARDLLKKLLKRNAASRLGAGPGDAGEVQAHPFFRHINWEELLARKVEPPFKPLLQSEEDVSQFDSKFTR

Row | Molecule | fewer deuterons incorporated in S6K11-365 versus no peptide [1] | activation of PDK1 [Phe224Trp] (in words) [2] | activation of PDK1 [Thr226Trp] (in words) [3]
1 | S371/pT389: synthetic S6K1 tail peptide (residues 366-395) phosphorylated in the HM | ≈ 10 deuterons | – | –
2 | O=C(O)CSC(CC(=O)c1ccc(Cl)cc1)c1ccccc1 (stereo not drawn) [Compound 1] | – | activated | not activated
3 | S371/T389: synthetic S6K1 tail peptide (residues 366-395), non-phosphorylated | no effect | – | –
4 | REPRILSEEEQEMFRDFDYIADWC [PIFtide, reference compound] | – | activated | not activated
